Converted amounts (≈) assume the structure as drawn. Blank lines part the entries; values can stand above or below the compound they belong to.
Experiments:
[1] = Protein binding in mouse plasma; format: ADME, cell-free; details: read-out: PPB (converted)
[2] = Volume of distribution in dog at 1 mg/kg, iv; format: ADME, organism-based, Canis lupus familiaris; details: in vivo
[3] = Half life in mouse at 3 mg/kg, iv; format: ADME, organism-based; details: in vivo
[4] = AUC (0 to 48 hrs) in monkey at 1 mg/kg, iv; format: ADME, organism-based, Macaca mulatta; design: time < 48 hr, dose 1 mg/kg, route intravenous; details: rhesus monkey, in vivo
A2780 [5] = experiment: Antitumor activity against human A2780 cells xenografted in nu/nu mouse assessed as tumor growth inhibition at 300 mg/kg, po bid; format: functional; details: read-out: TGI
Cytochrome P450 3A4 = Cytochrome P450 3A4 (Homo sapiens, UniProt P08684); experiment: Inhibition of CYP3A4 in human liver microsomes; format: ADME
Sequence of Cytochrome P450 3A4 (P08684 whole entry): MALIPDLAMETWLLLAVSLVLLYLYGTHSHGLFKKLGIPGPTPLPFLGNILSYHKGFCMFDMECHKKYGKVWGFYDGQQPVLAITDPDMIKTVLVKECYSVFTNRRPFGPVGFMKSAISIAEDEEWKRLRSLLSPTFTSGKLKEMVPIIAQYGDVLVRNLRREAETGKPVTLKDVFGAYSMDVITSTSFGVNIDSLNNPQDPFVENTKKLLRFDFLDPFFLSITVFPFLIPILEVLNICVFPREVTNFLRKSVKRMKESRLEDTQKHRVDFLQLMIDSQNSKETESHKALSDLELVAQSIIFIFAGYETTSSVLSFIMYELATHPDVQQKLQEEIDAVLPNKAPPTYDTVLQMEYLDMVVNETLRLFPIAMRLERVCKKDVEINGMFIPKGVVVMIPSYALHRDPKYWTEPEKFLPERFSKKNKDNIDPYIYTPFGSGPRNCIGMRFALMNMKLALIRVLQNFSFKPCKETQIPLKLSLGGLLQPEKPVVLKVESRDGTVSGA

[6] = Clearance in mouse at 3 mg/kg, iv; format: ADME, organism-based; details: in vivo
[7] = AUC (0 to 24 hrs) in mouse at 50 mg/kg, po; format: ADME, organism-based; design: time < 24 hr, dose 50 mg/kg, route oral; details: in vivo
Cytochrome P450 2C19 = Cytochrome P450 2C19 (Homo sapiens, UniProt P33261); experiment: Inhibition of CYP2C19 in human liver microsomes; format: ADME
Sequence of Cytochrome P450 2C19 (P33261 whole entry): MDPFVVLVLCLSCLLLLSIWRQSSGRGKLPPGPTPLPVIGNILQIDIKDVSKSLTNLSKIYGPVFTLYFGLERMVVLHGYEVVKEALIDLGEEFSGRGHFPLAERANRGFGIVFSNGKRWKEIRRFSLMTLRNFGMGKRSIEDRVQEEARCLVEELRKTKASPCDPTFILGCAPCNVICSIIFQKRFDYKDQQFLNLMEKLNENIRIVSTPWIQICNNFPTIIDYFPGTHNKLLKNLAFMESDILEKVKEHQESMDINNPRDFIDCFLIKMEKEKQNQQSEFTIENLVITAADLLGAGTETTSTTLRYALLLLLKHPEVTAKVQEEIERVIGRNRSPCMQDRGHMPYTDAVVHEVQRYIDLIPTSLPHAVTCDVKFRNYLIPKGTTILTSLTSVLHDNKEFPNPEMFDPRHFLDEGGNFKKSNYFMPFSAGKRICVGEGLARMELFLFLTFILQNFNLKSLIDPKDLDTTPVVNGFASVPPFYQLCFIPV

[8] = Volume of distribution in monkey at 1 mg/kg, iv; format: ADME, organism-based, Macaca mulatta; details: rhesus monkey, in vivo
Cytochrome P450 2D6 = Cytochrome P450 2D6 (Homo sapiens, UniProt P10635); experiment: Inhibition of CYP2D6 in human liver microsomes; format: ADME
Sequence of Cytochrome P450 2D6 (P10635 whole entry): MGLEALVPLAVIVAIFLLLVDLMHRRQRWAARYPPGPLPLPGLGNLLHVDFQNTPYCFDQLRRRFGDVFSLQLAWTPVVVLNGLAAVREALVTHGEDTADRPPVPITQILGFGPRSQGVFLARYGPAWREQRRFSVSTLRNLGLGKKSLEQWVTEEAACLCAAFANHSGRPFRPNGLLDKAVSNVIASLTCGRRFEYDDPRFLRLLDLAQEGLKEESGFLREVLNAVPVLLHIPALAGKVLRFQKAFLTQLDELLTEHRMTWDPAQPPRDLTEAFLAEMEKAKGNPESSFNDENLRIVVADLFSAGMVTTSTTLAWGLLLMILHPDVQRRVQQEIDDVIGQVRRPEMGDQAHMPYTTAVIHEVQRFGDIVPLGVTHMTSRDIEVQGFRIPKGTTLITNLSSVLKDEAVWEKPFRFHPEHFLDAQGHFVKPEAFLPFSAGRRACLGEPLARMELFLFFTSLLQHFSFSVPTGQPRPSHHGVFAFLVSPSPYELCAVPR

[9] = Kinetic solubility of the compound in sodium phosphate buffer/2% DMSO at pH 7.4 by static light scattering method; format: physicochemical; details: read-out: Kinetic_solubility
[10] = Oral bioavailability in mouse at 50 mg/kg; format: ADME, organism-based; details: in vivo
[11] = AUC (0 to 48 hrs) in dog at 3 mg/kg, po; format: ADME, organism-based, Canis lupus familiaris; design: dose 3 mg/kg, time < 48 hr, route oral; details: in vivo
[12] = Oral bioavailability in rat at 3 mg/kg; format: ADME, organism-based; details: in vivo
[13] = AUC (0 to 6 hrs) in rat at 10 mg/kg, po; format: ADME, organism-based; design: time < 6 hr, dose 10 mg/kg, route oral; details: in vivo
[14] = AUC (0 to 48 hrs) in rat at 1 mg/kg, iv; format: ADME, organism-based; design: time < 48 hr, dose 1 mg/kg, route intravenous; details: in vivo
Cytochrome P450 2C9 = Cytochrome P450 2C9 (Homo sapiens, UniProt P11712); experiment: Inhibition of CYP2C9 in human liver microsomes; format: ADME
Sequence of Cytochrome P450 2C9 (P11712 whole entry): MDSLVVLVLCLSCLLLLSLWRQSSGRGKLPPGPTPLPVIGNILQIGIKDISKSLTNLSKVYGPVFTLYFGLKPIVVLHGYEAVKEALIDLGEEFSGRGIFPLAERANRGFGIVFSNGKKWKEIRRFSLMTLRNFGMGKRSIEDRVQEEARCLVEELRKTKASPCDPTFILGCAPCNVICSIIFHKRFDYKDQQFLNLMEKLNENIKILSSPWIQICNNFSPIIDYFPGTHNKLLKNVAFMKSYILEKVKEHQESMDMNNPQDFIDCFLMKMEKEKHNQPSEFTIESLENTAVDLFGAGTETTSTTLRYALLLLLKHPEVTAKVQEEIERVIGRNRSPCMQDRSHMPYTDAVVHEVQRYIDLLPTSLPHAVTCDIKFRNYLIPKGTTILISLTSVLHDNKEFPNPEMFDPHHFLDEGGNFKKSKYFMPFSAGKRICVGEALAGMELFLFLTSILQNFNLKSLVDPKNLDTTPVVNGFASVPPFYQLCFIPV

[15] = Clearance in dog at 1 mg/kg, iv; format: ADME, organism-based, Canis lupus familiaris; details: in vivo
[16] = Volume of distribution in mouse at 3 mg/kg, iv; format: ADME, organism-based; details: in vivo
[17] = Protein binding in human plasma; format: ADME, cell-free; details: read-out: PPB (converted)
[18] = AUC (0 to 48 hrs) in rat at 3 mg/kg, po; format: ADME, organism-based; design: dose 3 mg/kg, time < 48 hr, route oral; details: in vivo
[19] = Half life in rat at 1 mg/kg, iv; format: ADME, organism-based; details: in vivo
[20] = target: Testis-specific serine/threonine-protein kinase 2 (Homo sapiens, UniProt Q96PF2); experiment: Inhibition of TSSK2 (unknown origin)
Sequence of Testis-specific serine/threonine-protein kinase 2 (Q96PF2 whole entry): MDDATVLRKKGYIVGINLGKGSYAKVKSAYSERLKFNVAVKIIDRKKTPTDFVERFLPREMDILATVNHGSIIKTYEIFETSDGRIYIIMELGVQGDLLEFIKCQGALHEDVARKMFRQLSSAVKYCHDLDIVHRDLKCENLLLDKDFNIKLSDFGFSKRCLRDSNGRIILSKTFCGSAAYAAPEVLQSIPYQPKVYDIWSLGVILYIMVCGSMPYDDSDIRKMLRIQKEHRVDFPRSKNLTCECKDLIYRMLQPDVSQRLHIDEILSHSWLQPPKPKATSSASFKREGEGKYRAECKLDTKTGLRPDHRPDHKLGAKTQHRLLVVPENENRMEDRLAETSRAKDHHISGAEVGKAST

[21] = Half life in monkey at 1 mg/kg, iv; format: ADME, organism-based, Macaca mulatta; details: rhesus monkey, in vivo
[22] = target: Ribosomal protein S6 kinase alpha-3 (Homo sapiens, UniProt P51812); experiment: Inhibition of RSK2 (unknown origin)
Sequence of Ribosomal protein S6 kinase alpha-3 (P51812 whole entry): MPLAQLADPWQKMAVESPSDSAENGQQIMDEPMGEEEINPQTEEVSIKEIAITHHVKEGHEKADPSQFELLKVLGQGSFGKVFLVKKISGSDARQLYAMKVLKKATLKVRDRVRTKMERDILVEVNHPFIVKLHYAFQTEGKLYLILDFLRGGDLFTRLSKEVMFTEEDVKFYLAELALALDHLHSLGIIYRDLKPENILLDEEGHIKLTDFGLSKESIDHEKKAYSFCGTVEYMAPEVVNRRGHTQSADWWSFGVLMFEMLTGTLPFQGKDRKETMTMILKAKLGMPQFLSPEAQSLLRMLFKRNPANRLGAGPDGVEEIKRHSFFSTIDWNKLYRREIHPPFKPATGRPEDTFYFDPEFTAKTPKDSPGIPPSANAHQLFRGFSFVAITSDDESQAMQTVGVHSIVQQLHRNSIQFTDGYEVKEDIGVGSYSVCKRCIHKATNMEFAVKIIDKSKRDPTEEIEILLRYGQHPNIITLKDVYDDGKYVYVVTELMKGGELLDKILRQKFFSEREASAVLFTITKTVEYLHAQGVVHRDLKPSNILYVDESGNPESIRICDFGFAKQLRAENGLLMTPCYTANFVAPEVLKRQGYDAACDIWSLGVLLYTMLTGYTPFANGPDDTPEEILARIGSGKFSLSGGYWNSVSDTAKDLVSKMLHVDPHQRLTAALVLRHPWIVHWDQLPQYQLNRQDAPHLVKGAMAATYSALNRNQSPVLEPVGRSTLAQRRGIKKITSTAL

[23] = Protein binding in rat plasma; format: ADME, cell-free; details: read-out: PPB (converted)
[24] = AUC (0 to 48 hrs) in dog at 1 mg/kg, iv; format: ADME, organism-based, Canis lupus familiaris; design: dose 1 mg/kg, time < 48 hr, route intravenous; details: in vivo
[25] = AUC (0 to 24 hrs) in mouse at 3 mg/kg, iv; format: ADME, organism-based; design: time < 24 hr, dose 3 mg/kg, route intravenous; details: in vivo
[26] = Oral bioavailability in dog at 3 mg/kg; format: ADME, organism-based, Canis lupus familiaris; details: in vivo
[27] = Oral bioavailability in monkey at 3 mg/kg; format: ADME, organism-based, Macaca mulatta; details: rhesus monkey, in vivo
[28] = target: Serine/threonine-protein kinase Nek2 (Homo sapiens, UniProt P51955); experiment: Inhibition of NEK2 (unknown origin)
Sequence of Serine/threonine-protein kinase Nek2 (P51955 whole entry): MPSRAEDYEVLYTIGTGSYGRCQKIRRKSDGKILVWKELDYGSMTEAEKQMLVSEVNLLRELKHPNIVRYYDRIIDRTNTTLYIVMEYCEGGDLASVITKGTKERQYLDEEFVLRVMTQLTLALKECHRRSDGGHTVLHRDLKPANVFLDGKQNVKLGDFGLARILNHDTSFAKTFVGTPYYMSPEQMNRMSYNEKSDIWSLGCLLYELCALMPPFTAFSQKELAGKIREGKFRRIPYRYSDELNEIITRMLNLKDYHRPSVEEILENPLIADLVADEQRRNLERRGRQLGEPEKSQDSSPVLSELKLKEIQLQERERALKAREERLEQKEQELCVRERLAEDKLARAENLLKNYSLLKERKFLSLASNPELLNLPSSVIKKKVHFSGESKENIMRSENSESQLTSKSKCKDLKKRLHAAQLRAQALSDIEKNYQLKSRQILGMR

[29] = Half life in dog at 1 mg/kg, iv; format: ADME, organism-based, Canis lupus familiaris; details: in vivo
[30] = Clearance in monkey at 1 mg/kg, iv; format: ADME, organism-based, Macaca mulatta; details: rhesus monkey, in vivo
[31] = Volume of distribution in rat at 1 mg/kg, iv; format: ADME, organism-based; details: in vivo
[32] = Clearance in rat at 1 mg/kg, iv; format: ADME, organism-based; details: in vivo
Rattus norvegicus = experiment: AUC (0 to 24 hrs) in rat at 30 mg/kg, po; format: ADME, organism-based; design: time < 24 hr, dose 30 mg/kg, route oral; details: in vivo, 24 h
[33] = Oral bioavailability in monkey at 10 mg/kg; format: ADME, organism-based, Macaca mulatta; details: rhesus monkey, in vivo
A2780 [34] = experiment: Antitumor activity against human A2780 cells xenografted in nu/nu mouse assessed as tumor growth inhibition at 10 mg/kg, po bid for 3 days; format: functional; details: 72 h, read-out: TGI
[35] = Equilibrium solubility of the compound in citrate buffer at pH 5.3 by HPLC method; format: physicochemical
[36] = Volume of distribution in rat at 10 mg/kg, iv; format: ADME, organism-based; details: in vivo
A2780 [37] = experiment: Antitumor activity against human A2780 cells xenografted in nu/nu mouse assessed as tumor growth inhibition at 10 mg/kg, ip bid for 3 days; format: functional; details: 72 h, read-out: TGI
A2780 [38] = experiment: Antitumor activity against human A2780 cells xenografted in nu/nu mouse assessed as tumor growth inhibition at 25 mg/kg, po qd for 3 days; format: functional; details: 72 h, read-out: TGI
[39] = Clearance in rat at 10 mg/kg, iv; format: ADME, organism-based; details: in vivo
Mus musculus [40] = experiment: Toxicity in nu/nu mouse xenografted with human A2780 cells assessed as body weight loss at 25 mg/kg, po qd after 3 days; format: organism-based; details: in vivo, 72 h
[41] = Intrinsic clearance in cryopreserved monkey hepatocytes assessed per million cells; format: ADME, cell-based, Macaca mulatta, Hepatocyte; details: rhesus monkey, read-out: CLH
[42] = Intrinsic clearance in cryopreserved rat hepatocytes assessed per million cells; format: ADME, cell-based, Hepatocyte; details: read-out: CLH
[43] = target: Ribosomal protein S6 kinase; experiment: Inhibition of S6K (unknown origin); format: protein assay, Homo sapiens
[44] = AUC (0 to 24 hrs) in rat at 10 mg/kg, iv; format: ADME, organism-based; design: time < 24 hr, dose 10 mg/kg, route intravenous; details: in vivo
[45] = Half life in rat at 10 mg/kg, iv; format: ADME, organism-based; details: in vivo
HCT-116 = experiment: Induction of endoreduplication in human HCT116 cells assessed as accumulation of >=4 N DNA preincubated for 24 hrs followed by compound washout by FACS analysis; format: functional
[46] = Oral bioavailability in rat at 30 mg/kg; format: ADME, organism-based; details: in vivo
[47] = Intrinsic clearance in cryopreserved dog hepatocytes assessed per million cells; format: ADME, cell-based, Canis lupus familiaris, Hepatocyte; details: read-out: CLH
[48] = Intrinsic clearance in cryopreserved human hepatocytes assessed per million cells; format: ADME, cell-based, Hepatocyte; details: read-out: CLH
Mus musculus [49] = experiment: Toxicity in nu/nu mouse xenografted with human A2780 cells assessed as death at 10 to 25 mg/kg, po after 3 days; format: organism-based; details: in vivo, 72 h
[50] = target: Interleukin-1 receptor-associated kinase 4 (Homo sapiens, UniProt Q9NWZ3); experiment: Inhibition of IRAK4 (unknown origin)
Sequence of Interleukin-1 receptor-associated kinase 4 (Q9NWZ3 whole entry): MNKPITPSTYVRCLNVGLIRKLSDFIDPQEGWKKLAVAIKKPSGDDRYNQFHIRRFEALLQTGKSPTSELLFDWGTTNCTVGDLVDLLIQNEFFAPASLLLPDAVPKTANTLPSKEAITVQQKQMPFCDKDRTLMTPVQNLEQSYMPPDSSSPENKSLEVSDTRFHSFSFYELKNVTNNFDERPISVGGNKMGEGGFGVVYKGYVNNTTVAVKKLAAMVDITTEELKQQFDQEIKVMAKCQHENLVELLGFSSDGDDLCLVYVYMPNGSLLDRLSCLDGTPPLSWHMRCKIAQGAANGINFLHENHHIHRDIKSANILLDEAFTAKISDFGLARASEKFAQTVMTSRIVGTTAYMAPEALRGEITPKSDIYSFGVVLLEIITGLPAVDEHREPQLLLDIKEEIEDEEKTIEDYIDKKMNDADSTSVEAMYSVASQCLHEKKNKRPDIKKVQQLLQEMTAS

[51] = AUC (0 to 48 hrs) in monkey at 10 mg/kg, po; format: ADME, organism-based, Macaca mulatta; design: time < 48 hr, dose 10 mg/kg, route oral; details: rhesus monkey, in vivo
Mus musculus [52] = experiment: Toxicity in nu/nu mouse xenografted with human A2780 cells assessed as body weight loss at 10 mg/kg, po bid after 3 days; format: organism-based; details: in vivo, 72 h

fraction unbound [1]: 0.028
Vd [2]: 0.2 L/kg
half-life [3]: 0.2 h
AUC(0-t) at 48 h [4]: 1.7 µM·h
IC50 (Cytochrome P450 3A4): > 20000 nM
clearance [6]: 118 mL/min/kg
AUC(0-t) at 24 h [7]: 14.1 µM·h
IC50 (Cytochrome P450 2C19): > 20000 nM
Vd [8]: 1 L/kg
IC50 (Cytochrome P450 2D6): > 20000 nM
solubility kinetic [9]: 20 µM (≈ 7.77 µg/mL)
bioavailability [10]: 77%
AUC(0-t) at 48 h [11]: 4.1 µM·h
bioavailability [12]: 10%
AUC(0-t) at 6 h [13]: 17.7 µM·h
AUC(0-t) at 48 h [14]: 2.8 µM·h
IC50 (Cytochrome P450 2C9): > 20000 nM
clearance [15]: 5 mL/min/kg
Vd [16]: 1.6 L/kg
fraction unbound [17]: 0.009
AUC(0-t) at 48 h [18]: 0.8 µM·h
half-life [19]: 0.7 h
IC50 [20]: > 500 nM
half-life [21]: 0.5 h
IC50 [22]: 260 nM
fraction unbound [23]: 0.004
AUC(0-t) at 48 h [24]: 9.2 µM·h
AUC(0-t) at 24 h [25]: 1.1 µM·h
bioavailability [26]: 15%
bioavailability [27]: 0%
IC50 [28]: > 500 nM
half-life [29]: 0.8 h
clearance [30]: 28 mL/min/kg
Vd [31]: 0.7 L/kg
clearance [32]: 15 mL/min/kg
SMILES: Cc1cn2c(-c3cn[nH]c3)cnc2c(Nc2cc(Cc3ccccn3)ns2)n1
inhibition in vivo at 300 mg/kg (A2780 [5]): 61%

IC50 [20]: > 500 nM
IC50 [22]: 180 nM
IC50 [28]: > 500 nM
SMILES: CCN(CCO)Cc1cc(Nc2nc(C)cn3c(-c4cn[nH]c4)cnc23)sn1

SMILES: Cc1cn2c(-c3cn[nH]c3)cnc2c(Nc2cc(C(NC(C)(C)C)c3ccccn3)ns2)n1 (single isomer, unassigned; (+))
fraction unbound [1]: 0.028
Vd [2]: 3.7 L/kg
AUC (Rattus norvegicus): 41 µM·h
half-life [3]: 1.8 h
bioavailability [33]: 8%
AUC(0-t) at 48 h [4]: 5 µM·h
inhibition in vivo at 10 mg/kg (A2780 [34]): 79%
IC50 (Cytochrome P450 3A4): > 20000 nM
solubility thermodynamic [35]: 5300 µg/mL (≈ 11.5 mM)
Vd [36]: 2.5 L/kg
inhibition in vivo at 10 mg/kg (A2780 [37]): 94%
inhibition in vivo at 25 mg/kg (A2780 [38]): 86%
clearance [39]: 11 mL/min/kg
Activity (Mus musculus [40]): 10%
hepatocyte CLint [41]: 27.6 µL/min/1e6 cells
clearance [6]: 50 mL/min/kg
hepatocyte CLint [42]: 11.5 µL/min/1e6 cells
AUC(0-t) at 24 h [7]: 23.5 µM·h
Vd [8]: 1.3 L/kg
IC50 [43]: > 1000 nM
IC50 (Cytochrome P450 2D6): 11500 nM
bioavailability [10]: 64%
AUC(0-t) at 24 h [44]: 33 µM·h
AUC(0-t) at 48 h [11]: 10.1 µM·h
half-life [45]: 2.6 h
Cmin (HCT-116): 6 nM
IC50 (Cytochrome P450 2C9): 6000 nM
bioavailability [46]: 40%
clearance [15]: 9.4 mL/min/kg
hepatocyte CLint [47]: 5.1 µL/min/1e6 cells
Vd [16]: 5.3 L/kg
fraction unbound [17]: 0.012
half-life [21]: 2.2 h
hepatocyte CLint [48]: 11.8 µL/min/1e6 cells
fraction unbound [23]: 0.01
AUC(0-t) at 48 h [24]: 3.9 µM·h
Activity (Mus musculus [49]): Toxic
AUC(0-t) at 24 h [25]: 2.2 µM·h
IC50 [50]: 380 nM
AUC(0-t) at 48 h [51]: 4 µM·h
bioavailability [26]: 86%
Activity (Mus musculus [52]): 10%
half-life [29]: 4.6 h
clearance [30]: 7.4 mL/min/kg
